# US20180042943A1, “METHODS FOR MODULATING BONE DENSITY” (Intercept Pharmaceuticals, Inc., priority 2015, published 2018)
# “Also recorded” adds a separate entry of the source.
# Columns and labels:
# [1] = DEXA scan of the femoral neck (T-score, Z-score, BMD) in PBC subjects, 12 months OCA or placebo; type: in vivo, human; settings: for Femoral Neck Scan: Bone Mineral Density, Change From Baseline, Mean / Femoral Neck Scan: Bone Mineral Density, Change From Baseline, Median / Femoral Neck Scan: Bone Mineral Density, Result, Mean / Femoral Neck Scan: Bone Mineral Density, Result, Median / Femoral Neck Scan: T-Score, Change From Baseline, Mean / Femoral Neck Scan: T-Score, Change From Baseline, Median / Femoral Neck Scan: T-Score, Result, Mean / Femoral Neck Scan: T-Score, Result, Median / Femoral Neck Scan: Z-Score, Change From Baseline, Mean / Femoral Neck Scan: Z-Score, Change From Baseline, Median / Femoral Neck Scan: Z-Score, Result, Mean / Femoral Neck Scan: Z-Score, Result, Median / Femoral Neck Scan: Bone Mineral Density, Change From Baseline, LS Mean / Femoral Neck Scan: Bone Mineral Density, Change From Baseline, OCA - Placebo mean difference / Femoral Neck Scan: T-Score, Change From Baseline, LS Mean / Femoral Neck Scan: T-Score, Change From Baseline, OCA - Placebo mean difference / Femoral Neck Scan: Z-Score, Change From Baseline, LS Mean / Femoral Neck Scan: Z-Score, Change From Baseline, OCA - Placebo mean difference: orally once daily, DB Month 12, subjects with PBC; for Femoral Neck Scan: Bone Mineral Density, Change From Baseline, LS Mean / Femoral Neck Scan: Bone Mineral Density, Change From Baseline, OCA - Placebo mean difference / Femoral Neck Scan: T-Score, Change From Baseline, LS Mean / Femoral Neck Scan: T-Score, Change From Baseline, OCA - Placebo mean difference / Femoral Neck Scan: Z-Score, Change From Baseline, LS Mean / Femoral Neck Scan: Z-Score, Change From Baseline, OCA - Placebo mean difference: ANCOVA
# Method: (§1) PBC patients are randomized to three groups: (a) placebo (PCB), (b) 10 mg OCA, or (c) 5 mg (month 0-6) titrating to 10 mg (month 7-12) OCA. Study medication is administered orally, once daily for 12 months. For patients under pretreatment ursodeoxycholic acid (UDCA) treatment, the pre-treatment dose of UDCA is continued throughout their treatment. Bone density is measured by DEXA scans. DEXA scans of the lumbar spine and femoral neck are conducted at Day 0 and Month 12. Additional measurement may be conducted after Month 12 (e.g., annually after Month 12) as necessary and appropriate. The timing of the DEXA scans is not critical, and may be conducted±2 weeks. […] Subjects with PBC±UDCA (if taking UDCA, patients were maintained on a stable dose) with ALP≧1.67×ULN or bilirubin<2×ULN were randomized to placebo (PBO), OCA 5 or 10 mg for 12 months. Subjects on 5 mg were titrated to 10 mg after 6 months (OCA Titration) based on clinical response and tolerability. Dual-emission X-ray absorptiometry (DEXA) scan was used to assess BMD in a subset of subjects prior to and following 12 months of OCA or placebo treatment. Changes from baseline at Month 12 were analyzed using an ANCOVA model with baseline values as a covariate. Osteopenia and osteoporosis were based on WHO thresholds: T score −1.0 to ≦−2.5 […].
# [2] = DEXA scan of the lumbar spine (T-score, Z-score, BMD) in PBC subjects, 12 months OCA or placebo; type: in vivo, human; settings: for Lumbar Spine Scan: Bone Mineral Density, Change From Baseline, Mean / Lumbar Spine Scan: Bone Mineral Density, Change From Baseline, Median / Lumbar Spine Scan: Bone Mineral Density, Result, Mean / Lumbar Spine Scan: Bone Mineral Density, Result, Median / Lumbar Spine Scan: T-Score, Change From Baseline, Mean / Lumbar Spine Scan: T-Score, Change From Baseline, Median / Lumbar Spine Scan: T-Score, Result, Mean / Lumbar Spine Scan: T-Score, Result, Median / Lumbar Spine Scan: Z-Score, Change From Baseline, Mean / Lumbar Spine Scan: Z-Score, Change From Baseline, Median / Lumbar Spine Scan: Z-Score, Result, Mean / Lumbar Spine Scan: Z-Score, Result, Median / Lumbar Spine Scan: Bone Mineral Density, Change From Baseline, LS Mean / Lumbar Spine Scan: Bone Mineral Density, Change From Baseline, OCA - Placebo mean difference / Lumbar Spine Scan: T-Score, Change From Baseline, LS Mean / Lumbar Spine Scan: T-Score, Change From Baseline, OCA - Placebo mean difference / Lumbar Spine Scan: Z-Score, Change From Baseline, LS Mean / Lumbar Spine Scan: Z-Score, Change From Baseline, OCA - Placebo mean difference: orally once daily, DB Month 12, subjects with PBC; for Lumbar Spine Scan: Bone Mineral Density, Change From Baseline, LS Mean / Lumbar Spine Scan: Bone Mineral Density, Change From Baseline, OCA - Placebo mean difference / Lumbar Spine Scan: T-Score, Change From Baseline, LS Mean / Lumbar Spine Scan: T-Score, Change From Baseline, OCA - Placebo mean difference / Lumbar Spine Scan: Z-Score, Change From Baseline, LS Mean / Lumbar Spine Scan: Z-Score, Change From Baseline, OCA - Placebo mean difference: ANCOVA
# Method: as §1
# [3] = Titration OCA (5 mg, titrated to 10 mg after 6 months)
smiles,measurement,setting,value
"CC[C@H]1[C@@H](O)[C@@H]2[C@H](CC[C@]3(C)[C@@H]([C@H](C)CCC(=O)O)CC[C@@H]23)[C@@]2(C)CC[C@@H](O)C[C@@H]12 [OCA, 3α,7α-dihydroxy-6α-ethyl-5β-cholan-24-oic acid]","Femoral Neck Scan: Bone Mineral Density, Change From Baseline, Mean",[1]; 10 mg OCA,−0.034 g/cm^2
same,"Femoral Neck Scan: Bone Mineral Density, Change From Baseline, Median",[1]; 10 mg OCA,−0.018 g/cm^2
same,"Femoral Neck Scan: Bone Mineral Density, Result, Mean",[1]; 10 mg OCA,0.813 g/cm^2
same,"Femoral Neck Scan: Bone Mineral Density, Result, Median",[1]; 10 mg OCA,0.779 g/cm^2
same,"Femoral Neck Scan: T-Score, Change From Baseline, Mean",[1]; 10 mg OCA,−0.11
same,"Femoral Neck Scan: T-Score, Change From Baseline, Median",[1]; 10 mg OCA,−0.10
same,"Femoral Neck Scan: T-Score, Result, Mean",[1]; 10 mg OCA,−1.06
same,"Femoral Neck Scan: T-Score, Result, Median",[1]; 10 mg OCA,−1.05
same,"Femoral Neck Scan: Z-Score, Change From Baseline, Mean",[1]; 10 mg OCA,−0.06
same,"Femoral Neck Scan: Z-Score, Change From Baseline, Median",[1]; 10 mg OCA,0.00
same,"Femoral Neck Scan: Z-Score, Result, Mean",[1]; 10 mg OCA,−0.01
same,"Femoral Neck Scan: Z-Score, Result, Median",[1]; 10 mg OCA,−0.10
same,"Femoral Neck Scan: Bone Mineral Density, Change From Baseline, LS Mean",[1]; 10 mg OCA,−0.04 g/cm^2
same,"Femoral Neck Scan: Bone Mineral Density, Change From Baseline, OCA - Placebo mean difference",[1]; 10 mg OCA,−0.02 g/cm^2
same,"Femoral Neck Scan: T-Score, Change From Baseline, LS Mean",[1]; 10 mg OCA,−0.07
same,"Femoral Neck Scan: T-Score, Change From Baseline, OCA - Placebo mean difference",[1]; 10 mg OCA,0.26
same,"Femoral Neck Scan: Z-Score, Change From Baseline, LS Mean",[1]; 10 mg OCA,−0.07
same,"Femoral Neck Scan: Z-Score, Change From Baseline, OCA - Placebo mean difference",[1]; 10 mg OCA,0.05
same,"Femoral Neck Scan: Bone Mineral Density, Change From Baseline, Mean",[1]; [3],−0.003 g/cm^2
same,"Femoral Neck Scan: Bone Mineral Density, Change From Baseline, Median",[1]; [3],−0.004 g/cm^2
same,"Femoral Neck Scan: Bone Mineral Density, Result, Mean",[1]; [3],0.809 g/cm^2
same,"Femoral Neck Scan: Bone Mineral Density, Result, Median",[1]; [3],0.822 g/cm^2
same,"Femoral Neck Scan: T-Score, Change From Baseline, Mean",[1]; [3],−0.03
same,"Femoral Neck Scan: T-Score, Change From Baseline, Median",[1]; [3],−0.05
same,"Femoral Neck Scan: T-Score, Result, Mean",[1]; [3],−1.28
same,"Femoral Neck Scan: T-Score, Result, Median",[1]; [3],−1.45
same,"Femoral Neck Scan: Z-Score, Change From Baseline, Mean",[1]; [3],0.01
same,"Femoral Neck Scan: Z-Score, Change From Baseline, Median",[1]; [3],0.00
same,"Femoral Neck Scan: Z-Score, Result, Mean",[1]; [3],−0.23
same,"Femoral Neck Scan: Z-Score, Result, Median",[1]; [3],−0.45
same,"Femoral Neck Scan: Bone Mineral Density, Change From Baseline, LS Mean",[1]; [3],−0.01 g/cm^2
same,"Femoral Neck Scan: Bone Mineral Density, Change From Baseline, OCA - Placebo mean difference",[1]; [3],0.01 g/cm^2
same,"Femoral Neck Scan: T-Score, Change From Baseline, LS Mean",[1]; [3],−0.06
same,"Femoral Neck Scan: T-Score, Change From Baseline, OCA - Placebo mean difference",[1]; [3],0.27
same,"Femoral Neck Scan: Z-Score, Change From Baseline, LS Mean",[1]; [3],−0.01
same,"Femoral Neck Scan: Z-Score, Change From Baseline, OCA - Placebo mean difference",[1]; [3],0.10
same,decrease in femoral bone mineral density T-score versus placebo,"[1]; both OCA groups, Baseline to Month 12, subjects with PBC, p<0.05",smaller decrease
same,"Lumbar Spine Scan: Bone Mineral Density, Change From Baseline, Mean",[2]; 10 mg OCA,−0.012 g/cm^2
same,"Lumbar Spine Scan: Bone Mineral Density, Change From Baseline, Median",[2]; 10 mg OCA,−0.013 g/cm^2
same,"Lumbar Spine Scan: Bone Mineral Density, Result, Mean",[2]; 10 mg OCA,1.003 g/cm^2
same,"Lumbar Spine Scan: Bone Mineral Density, Result, Median",[2]; 10 mg OCA,0.976 g/cm^2
same,"Lumbar Spine Scan: T-Score, Change From Baseline, Mean",[2]; 10 mg OCA,−0.17
same,"Lumbar Spine Scan: T-Score, Change From Baseline, Median",[2]; 10 mg OCA,−0.10
same,"Lumbar Spine Scan: T-Score, Result, Mean",[2]; 10 mg OCA,−1.02
same,"Lumbar Spine Scan: T-Score, Result, Median",[2]; 10 mg OCA,−1.20
same,"Lumbar Spine Scan: Z-Score, Change From Baseline, Mean",[2]; 10 mg OCA,−0.03
same,"Lumbar Spine Scan: Z-Score, Change From Baseline, Median",[2]; 10 mg OCA,0.00
same,"Lumbar Spine Scan: Z-Score, Result, Mean",[2]; 10 mg OCA,0.01
same,"Lumbar Spine Scan: Z-Score, Result, Median",[2]; 10 mg OCA,0.00
same,"Lumbar Spine Scan: Bone Mineral Density, Change From Baseline, LS Mean",[2]; 10 mg OCA,−0.01 g/cm^2
same,"Lumbar Spine Scan: Bone Mineral Density, Change From Baseline, OCA - Placebo mean difference",[2]; 10 mg OCA,0.00 g/cm^2
same,"Lumbar Spine Scan: T-Score, Change From Baseline, LS Mean",[2]; 10 mg OCA,−0.09
same,"Lumbar Spine Scan: T-Score, Change From Baseline, OCA - Placebo mean difference",[2]; 10 mg OCA,0.16
same,"Lumbar Spine Scan: Z-Score, Change From Baseline, LS Mean",[2]; 10 mg OCA,−0.03
same,"Lumbar Spine Scan: Z-Score, Change From Baseline, OCA - Placebo mean difference",[2]; 10 mg OCA,−0.05
same,"Lumbar Spine Scan: Bone Mineral Density, Change From Baseline, Mean",[2]; [3],−0.014 g/cm^2
same,"Lumbar Spine Scan: Bone Mineral Density, Change From Baseline, Median",[2]; [3],−0.007 g/cm^2
same,"Lumbar Spine Scan: Bone Mineral Density, Result, Mean",[2]; [3],1.013 g/cm^2
same,"Lumbar Spine Scan: Bone Mineral Density, Result, Median",[2]; [3],0.994 g/cm^2
same,"Lumbar Spine Scan: T-Score, Change From Baseline, Mean",[2]; [3],−0.06
same,"Lumbar Spine Scan: T-Score, Change From Baseline, Median",[2]; [3],0.00
same,"Lumbar Spine Scan: T-Score, Result, Mean",[2]; [3],−1.10
same,"Lumbar Spine Scan: T-Score, Result, Median",[2]; [3],−1.35
same,"Lumbar Spine Scan: Z-Score, Change From Baseline, Mean",[2]; [3],0.00
same,"Lumbar Spine Scan: Z-Score, Change From Baseline, Median",[2]; [3],0.00
same,"Lumbar Spine Scan: Z-Score, Result, Mean",[2]; [3],0.02
same,"Lumbar Spine Scan: Z-Score, Result, Median",[2]; [3],−0.20
same,"Lumbar Spine Scan: Bone Mineral Density, Change From Baseline, LS Mean",[2]; [3],−0.01 g/cm^2
same,"Lumbar Spine Scan: Bone Mineral Density, Change From Baseline, OCA - Placebo mean difference",[2]; [3],−0.01 g/cm^2
same,"Lumbar Spine Scan: T-Score, Change From Baseline, LS Mean",[2]; [3],−0.01
same,"Lumbar Spine Scan: T-Score, Change From Baseline, OCA - Placebo mean difference",[2]; [3],0.25
same,"Lumbar Spine Scan: Z-Score, Change From Baseline, LS Mean",[2]; [3],0.00
same,"Lumbar Spine Scan: Z-Score, Change From Baseline, OCA - Placebo mean difference",[2]; [3],−0.01
same,"Lumbar bone mineral density change, OCA groups versus placebo","[2]; both OCA groups, Baseline to Month 12, subjects with PBC",No significant difference; also recorded: not significant
